Some results are limits rather than exact numbers.

Sequence of p53 binding protein (Q9H4C2 whole entry): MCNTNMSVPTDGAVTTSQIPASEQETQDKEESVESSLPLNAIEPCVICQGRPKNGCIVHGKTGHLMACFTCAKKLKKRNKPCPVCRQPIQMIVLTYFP

This assay addresses p53 binding protein (Homo sapiens, UniProt Q9H4C2). In words: HDM2 Binding Assay. From the text: Binding assay using 1,4-benzodiazepine-2,5-dione (BZD) scaffold and HDM2-p53 protein.
For `O=C(O)C(c1ccccc1)N1C(=O)c2ccccc2NC(=O)C1c1ccccc1` (stereo not given) [BZD Scaffold, 1], the IC50 (usually the concentration at which inhibition is half-maximal) is > 125 µM. As for `CC(C)c1ccc2c(c1)C(=O)N(C(C(=O)O)c1ccc(Cl)cc1)C(c1ccc(Cl)cc1)C(=O)N2` (stereo not given) [BZD Scaffold, 2], the IC50 was 1 µM. That is a single-digit micromolar value. As to `O=C(O)C(c1ccccc1)N1C(=O)c2cc(I)ccc2NC(=O)C1c1ccccc1` (stereo not given) [BZD Scaffold, 3], the IC50 is 29 µM. To `O=C(O)C(c1ccccc1)N1C(=O)c2cc(I)ccc2NC(=O)C1c1ccc(C(F)(F)F)cc1` (stereo not given) [BZD Scaffold, 4] belongs 3.8 µM; to `O=C(O)C(c1ccccc1)N1C(=O)c2cc(I)ccc2NC(=O)C1c1ccc(Cl)cc1` (stereo not given) [BZD Scaffold, 5], 1.7 µM.
